Columns and labels:
Format in all cases: cell-based, human
[1] = tested on: 293-HEK cell line; assay: Extracellular vesicle output quantified by Bradford solution
Procedure: The 293-HEK cell line was cultured in a 6-well plate at a rate of 2×10^5 cells/mL, and the next day, the cell line was treated with the solution of Example 1 and a peptide of any one of SEQ ID NOs: 1 to 21. […], the solution was removed, followed by centrifugation at an RCF of 12000, and the extracellular vesicles were quantified using the supernatant by Bradford solution.

[2] = tested on: 293-HEK cell line; assay: Extracellular vesicle size and quantity by Nanoparticle Tracking Analysis (NTA); settings: 50-fold diluted, solution of Example 1, peptide 20 μm, after 20 minutes
Procedure: After the 293-HEK cell line was cultured to 90% confluency (about 2×10^7 cells) in a 10-cm culture dish, the culture was removed, and the cells were treated with the eMTDΔ4 peptide (final concentration: 20 μm), which has been dissolved in 5 ml of the solution of Example 1. After 20 minutes, the solution was removed, followed by centrifugation at an RCF of 12000, and then the size and quantity of extracellular vesicles were measured using a Nanoparticle Tracking Analysis (NTA) system (Nanosight LM10, Malvern Instruments).

[3] = tested on: HeLa cell line; assay: Production of extracellular vesicles, observed by optical microscope (bright field)
Procedure: After the HeLa cell line was cultured in a 6-well plate, the culture was removed, and then the HeLa cell line was treated with the solution in Example 1.
The control group was not treated with any peptide, and the experiment group was treated with eMTDΔ4 peptide of SEQ ID NO: 2 (final concentration: 20 μM). After 10 minutes, the generation of extracellular vesicles was observed by an optical microscope (bright field), and the observation results are shown in FIG. 1.
Extracellular vesicle production was carried out by the experimental method of Experimental Example 2-1 using the R(8):MTD peptide of SEQ ID NO: 4 and the solutions of Example 1 and Comparative Examples 1 to 18, and the results are shown in FIGS. 2A to 2S.
Extracellular vesicle production was carried out by the experimental method of Example 2-1 using the R(8):MTD peptide of SEQ ID NO: 4 and the solutions of Examples 1 to 3 on Table 3, and the results are shown in FIGS. 3A to 3C.

[4] = solution of Example 1, peptide 10 μM
[5] = solution of Example 1, peptide 20 μM
[6] = solution of Example 1, peptide 40 μM

AEYRKLLNLISKLF (TU128) [Noxa protein-derived derivative peptide, 14aa]
Amount of proteins contained in extracellular vesicles [1, 4]: 3.86 µg/µL | Amount of proteins contained in extracellular vesicles [1, 5]: 5.29 µg/µL | Amount of proteins contained in extracellular vesicles [1, 6]: 7.25 µg/µL

AEYSRKLLNLISKLF (TU135) [Noxa protein-derived derivative peptide, 15aa]
Amount of proteins contained in extracellular vesicles [1, 4]: 1.81 µg/µL | Amount of proteins contained in extracellular vesicles [1, 5]: 4.41 µg/µL | Amount of proteins contained in extracellular vesicles [1, 6]: 6.54 µg/µL

AFFLRKLLNLISKLF (TU151) [Noxa protein-derived derivative peptide, 15aa]
Amount of proteins contained in extracellular vesicles [1, 4]: 1.51 µg/µL | Amount of proteins contained in extracellular vesicles [1, 5]: 1.30 µg/µL | Amount of proteins contained in extracellular vesicles [1, 6]: 1.40 µg/µL

AHFLRKLLNLISKLF (TU149) [Noxa protein-derived derivative peptide, 15aa]
Amount of proteins contained in extracellular vesicles [1, 4]: 1.71 µg/µL | Amount of proteins contained in extracellular vesicles [1, 5]: 2.00 µg/µL | Amount of proteins contained in extracellular vesicles [1, 6]: 2.57 µg/µL

GLKSLRKLLNLISKLF (TU111) [Noxa protein-derived derivative peptide, 16aa]
Amount of proteins contained in extracellular vesicles [1, 4]: 4.17 µg/µL | Amount of proteins contained in extracellular vesicles [1, 5]: 4.98 µg/µL | Amount of proteins contained in extracellular vesicles [1, 6]: 6.44 µg/µL

KLLNLISKLF [MTD]
Amount of proteins contained in extracellular vesicles [1, 4]: 0.80 µg/µL | Amount of proteins contained in extracellular vesicles [1, 5]: 1.17 µg/µL | Amount of proteins contained in extracellular vesicles [1, 6]: 2.87 µg/µL | Quantity of extracellular vesicles [2]: 8.01e+08 ± 1.75e+07 mL⁻¹

KLLNLWSLLFGYTIK (TU103) [Noxa protein-derived derivative peptide, 15aa]
Amount of proteins contained in extracellular vesicles [1, 4]: 0.75 µg/µL | Amount of proteins contained in extracellular vesicles [1, 5]: 0.40 µg/µL | Amount of proteins contained in extracellular vesicles [1, 6]: 0.55 µg/µL

KLLNLWSLLKGYTIK (TU124) [Noxa protein-derived derivative peptide, 15aa]
Amount of proteins contained in extracellular vesicles [1, 4]: 3.30 µg/µL | Amount of proteins contained in extracellular vesicles [1, 5]: 5.02 µg/µL | Amount of proteins contained in extracellular vesicles [1, 6]: 6.24 µg/µL

KLNFAEFLRNLISKLF (TU166) [Noxa protein-derived derivative peptide, 16aa]
Amount of proteins contained in extracellular vesicles [1, 4]: 5.77 µg/µL | Amount of proteins contained in extracellular vesicles [1, 5]: 6.68 µg/µL | Amount of proteins contained in extracellular vesicles [1, 6]: 8.10 µg/µL

KLNFRLGLRSLREKLF (TU168) [Noxa protein-derived derivative peptide, 16aa]
Amount of proteins contained in extracellular vesicles [1, 4]: 0.77 µg/µL | Amount of proteins contained in extracellular vesicles [1, 5]: 2.17 µg/µL | Amount of proteins contained in extracellular vesicles [1, 6]: 3.74 µg/µL

KLNFRQKLARLLTKLF (TU171) [Noxa protein-derived derivative peptide, 16aa]
Amount of proteins contained in extracellular vesicles [1, 4]: 2.64 µg/µL | Amount of proteins contained in extracellular vesicles [1, 5]: 3.62 µg/µL | Amount of proteins contained in extracellular vesicles [1, 6]: 5.30 µg/µL

KVSIFLKNLISKLF (TU156) [Noxa protein-derived derivative peptide, 14aa]
Amount of proteins contained in extracellular vesicles [1, 4]: 1.17 µg/µL | Amount of proteins contained in extracellular vesicles [1, 5]: 1.55 µg/µL | Amount of proteins contained in extracellular vesicles [1, 6]: 3.93 µg/µL

KWYAKLLNLISKLF (TU114) [Noxa protein-derived derivative peptide, 14aa]
Quantity of extracellular vesicles [2]: 8.75e+08 ± 9.27e+07 mL⁻¹

LNFKWYSLLNLISKLF (TU172) [Noxa protein-derived derivative peptide, 16aa]
Amount of proteins contained in extracellular vesicles [1, 4]: 0.83 µg/µL | Amount of proteins contained in extracellular vesicles [1, 5]: 0.44 µg/µL | Amount of proteins contained in extracellular vesicles [1, 6]: 0.59 µg/µL

LRSLRDKLLNLISKLF (TU107) [Noxa protein-derived derivative peptide, 16aa]
Amount of proteins contained in extracellular vesicles [1, 4]: 5.58 µg/µL | Amount of proteins contained in extracellular vesicles [1, 5]: 6.69 µg/µL | Amount of proteins contained in extracellular vesicles [1, 6]: 7.45 µg/µL

MEWWYLLKLLNLISKLF (TU104) [Noxa protein-derived derivative peptide, 17aa]
Amount of proteins contained in extracellular vesicles [1, 4]: 0.62 µg/µL | Amount of proteins contained in extracellular vesicles [1, 5]: 0.75 µg/µL | Amount of proteins contained in extracellular vesicles [1, 6]: 1.02 µg/µL

QFAQYLRNLISKLF (TU155) [Noxa protein-derived derivative peptide, 14aa]
Amount of proteins contained in extracellular vesicles [1, 4]: 1.56 µg/µL | Amount of proteins contained in extracellular vesicles [1, 5]: 1.77 µg/µL | Amount of proteins contained in extracellular vesicles [1, 6]: 2.85 µg/µL

RPARPARGGKLLNLISKLF (TU17) [Noxa protein-derived derivative peptide, 19aa]
Quantity of extracellular vesicles [2]: 7.95e+08 ± 7.15e+07 mL⁻¹

RRRRRRRRKLLNLISKLF [R(8):MTD]
generation of extracellular vesicles ([3]; solution of Example 1 (250 mM sucrose), peptide final concentration 20 μM, after 10 minutes): many extracellular vesicle particles were generated | generation of extracellular vesicles ([3]; solutions of Comparative Examples 1 to 18 (FIGS. 2B to 2S)): extracellular vesicle particles were not generated | generation of extracellular vesicles ([3]; solutions of Examples 1 to 3, excess of glucose or sorbitol instead of sucrose): extracellular vesicles were well formed

YWLPLRKLLNLISKLF (TU146) [Noxa protein-derived derivative peptide, 16aa]
Amount of proteins contained in extracellular vesicles [1, 4]: 2.01 µg/µL | Amount of proteins contained in extracellular vesicles [1, 5]: 2.89 µg/µL | Amount of proteins contained in extracellular vesicles [1, 6]: 3.50 µg/µL

— patent US12280148B2, “Composition for promoting extracellular vesicle production containing peptide derived from noxa protein and method for producing extracellular vesicles by using same” (Exocalibre Therapeutics Co., Ltd., priority 2020, dated 2025)
